Our source for the IC50 values is patent publication US7329655B2, “Nitrogenous heterocyclic compounds” (Millennium Pharmaceuticals, Inc., priority 2000, dated 2008).

In one experiment the target is T1, endogenous β-PDGFR (Homo sapiens, UniProt P09619).
T1 construct: This assay is for measuring endogenous β-PDGFR phosphorylation in MG63 cells; host or cells: MG63 human osteosarcoma cells
In words: MG63 phosphorylation assay. It counts as cell-based. The settings on record: MG63 human osteosarcoma cells, PDGF-BB stimulation in the presence of 45% human plasma; inhibition of PDGF receptor phosphorylation; read-out: MG63 w/human plasma IC50.

Another experiment concerns the target T2, human β-PDGFR (Homo sapiens, UniProt P09619).
T2 construct: host or cells: CHO cells (HR5 line)
In words: HR5 phosphorylation assay. In kind it is cell-based. As to conditions: HR5 cells (CHO overexpressing human β-PDGFR), 8 nM PDGF BB; inhibition of PDGF receptor phosphorylation. On the procedure:
The HR5 cell line is a cell line of CHO cells engineered to overexpress human β-PDGFR, which cell line is available from the ATCC. The expression level of β-PDGFR in HR5 cells is around 5×10^4 receptor per cell. For the phosphorylation assay according to the invention, HR5 cells were grown to confluency in 96-well microtiter plates under standard tissue culture conditions, followed by serum-starvation for 16 hours. Quiescent cells were incubated at 37° C. without or with increasing concentrations of the test compound (0.01-30 uM) for 30 minutes followed by the addition of 8 nM PDGF BB for 10 minutes. Cells were lysed in 100 mM Tris, pH 7.5, 750 mM NaCl, 0.5% Triton X-100, 10 mM sodium pyrophosphate, 50 mM NaF, 10 ug/ml aprotinin, […] leupeptin, 1 mM phenylmethylsulfonyl fluoride, 1 mM sodium vanadate, and the lysate was cleared by centrifugation at 15,000×g for 5 minutes. Clarified lysates were transferred into a second microtiter plate in which the wells were previously coated with 500 ng/well of 1B5B11 anti-β-PDGFR mAb, and then incubated for two hours at room temperature. […] Wells were washed prior to adding ABTS (Sigma), and the rate of substrate formation was monitored at 650 nm. […]

Molecules are shown by their SMILES.

T1 sequence (P09619 33-1106): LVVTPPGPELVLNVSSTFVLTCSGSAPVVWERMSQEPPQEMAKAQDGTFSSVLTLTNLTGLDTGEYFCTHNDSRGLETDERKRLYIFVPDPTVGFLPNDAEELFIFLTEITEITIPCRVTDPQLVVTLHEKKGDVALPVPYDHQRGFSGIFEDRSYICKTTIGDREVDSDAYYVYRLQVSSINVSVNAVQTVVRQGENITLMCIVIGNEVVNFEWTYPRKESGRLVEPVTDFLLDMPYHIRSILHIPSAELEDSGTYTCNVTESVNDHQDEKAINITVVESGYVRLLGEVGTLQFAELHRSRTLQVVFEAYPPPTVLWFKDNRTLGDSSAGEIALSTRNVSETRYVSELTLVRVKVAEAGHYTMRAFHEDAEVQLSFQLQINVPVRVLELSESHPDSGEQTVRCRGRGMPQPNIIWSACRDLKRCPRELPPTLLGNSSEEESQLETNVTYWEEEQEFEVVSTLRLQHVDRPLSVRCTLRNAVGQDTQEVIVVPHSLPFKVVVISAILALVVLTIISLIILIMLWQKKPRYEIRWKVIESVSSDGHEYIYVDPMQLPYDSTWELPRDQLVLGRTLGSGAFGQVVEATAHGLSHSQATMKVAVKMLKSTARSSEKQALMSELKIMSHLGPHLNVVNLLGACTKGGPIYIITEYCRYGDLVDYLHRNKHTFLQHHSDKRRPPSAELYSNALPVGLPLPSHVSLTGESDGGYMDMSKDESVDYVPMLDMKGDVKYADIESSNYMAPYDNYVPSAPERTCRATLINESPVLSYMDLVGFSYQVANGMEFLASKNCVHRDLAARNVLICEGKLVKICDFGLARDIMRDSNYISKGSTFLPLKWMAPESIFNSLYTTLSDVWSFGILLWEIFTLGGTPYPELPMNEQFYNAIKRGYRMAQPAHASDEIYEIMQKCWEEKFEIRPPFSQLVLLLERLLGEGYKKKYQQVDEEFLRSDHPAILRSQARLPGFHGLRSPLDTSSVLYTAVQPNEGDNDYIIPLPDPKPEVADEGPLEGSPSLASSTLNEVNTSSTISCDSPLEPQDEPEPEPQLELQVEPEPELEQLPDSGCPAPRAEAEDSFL
T2 sequence (P09619 33-1106): as above

With `COc1cc2c(N3CCN(C(=S)NCc4ccc5c(c4)OCO5)CC3)ncnc2cc1OCCN1CCCCC1` [Example 1], the figures for the IC50 on endogenous β-PDGFR and at human β-PDGFR were 129 nM and 50 nM, respectively.
For `COc1cc2c(N3CCN(C(=S)NCc4cnc(C)cn4)CC3)ncnc2cc1OCCN1CCCCC1` [Example 2, {4-[6-methoxy-7-(2-piperidylethoxy)quinazolin-4-yl]piperazinyl}{[(5-methylpyrazin-2-yl)methyl]amino}methane-1-thione], the results for the IC50 at endogenous β-PDGFR and against human β-PDGFR were 47 nM and 20 nM, respectively.
